One assay addresses Paired box protein Pax-8 (Homo sapiens, UniProt Q06710). As to the kind of experiment: inhibitors of PAX8-driven TPO luciferase reporter, dose response, RMG-I cells, cherry-pick (AID 687027).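 Further: luciferase reporter driven by Pax8 target thyroperoxidase promoter measured by SteadyGlo luminescence.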 It counts as functional, cell-based.
Assay [1] in a line: cytotoxicity in OV-90 ovarian cancer cells, dose response, PAX8 inhibitor project, cell-based, plate reader, dry powder, SA8 (AID 743149). It counts as functional.
The nature of assay [2]: cytotoxicity dependent on PAX8, dose response, cell-based, plate reader, dry powder (AID 743049). It counts as functional.
The nature of assay [3]: NIH3T3 fibroblast cytotoxicity, dose response, cytotoxicity control for PglD inhibitor project, cell-based, CellTiter-Glo luminescence, dry powder (AID 652044). Format: functional.
Assay [4] is described as follows: A2780 ovarian cancer cell cytotoxicity, dose response, cytotoxicity control, plate reader, dry powder samples (AID 743046). Format: functional, cell-based.
Assay [5] can be described thus: NIH:OVCAR-3 ovarian cancer cell cytotoxicity, dose response, PAX8 inhibitor project, plate reader, dry powder samples (AID 743044). It counts as functional, cell-based.
Assay [6] in a line: IGROV1 ovarian cancer cell cytotoxicity, dose response, PAX8 inhibitor project, plate reader, dry powder samples (AID 743043). Particulars: IGROV-1. Format: functional, cell-based.
The nature of assay [7]: non-specific cell cytotoxicity, dose response, cytotoxicity control for PAX8 inhibitor project, plate reader, dry powder samples (AID 743021). It counts as functional, cell-based.
Assay [8] in a line: A549 cell cytotoxicity, dose response, cytotoxicity control, plate reader, cherry-pick, antagonist series (AID 743412). It counts as functional, cell-based.
The nature of assay [9]: LGR2 antagonists, dose response, cell-based, HEK293, CRE-luciferase reporter, cherry pick (AID 743342). Format: functional.
Assay [10] in a line: inhibitors of non-replicating M. tuberculosis, dose response, luciferase, dry powder (AID 651619). The conditions noted are these: Mycobacterium tuberculosis. Format: functional.
The nature of assay [11]: inhibitors of non-replicating M. tuberculosis, dose response, luciferase, dry powder (AID 651620). Format: functional. The conditions noted are these: Mycobacterium tuberculosis.
Assay [12] in a line: growth inhibition of replicating M. tuberculosis, dose response, counter-screen, dry powder, IC90 (AID 651617). It counts as functional. The conditions noted are these: Mycobacterium tuberculosis.
The target in the next assay is Protein Wnt-3a (Mus musculus, UniProt P27467). As to the kind of experiment: SAR analysis of small molecule antagonists of Gli-SUFU in a Wnt3a luminescent reporter assay. Format: functional.
Chain of Protein Wnt-3a (P27467 whole entry): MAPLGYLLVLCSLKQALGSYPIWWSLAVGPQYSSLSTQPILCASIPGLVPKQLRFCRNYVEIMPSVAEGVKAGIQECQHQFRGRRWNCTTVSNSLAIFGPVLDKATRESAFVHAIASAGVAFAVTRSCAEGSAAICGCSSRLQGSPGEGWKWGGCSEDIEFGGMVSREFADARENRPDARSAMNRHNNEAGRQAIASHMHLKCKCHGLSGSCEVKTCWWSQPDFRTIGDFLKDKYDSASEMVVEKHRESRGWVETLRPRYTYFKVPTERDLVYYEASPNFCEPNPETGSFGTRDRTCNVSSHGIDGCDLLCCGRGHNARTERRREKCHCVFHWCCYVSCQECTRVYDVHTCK
For assay [13], the target named is Kappa-type opioid receptor (Homo sapiens, UniProt P41145). As to the kind of experiment: Late-stage fluorescence-based cell-based dose response assay for antagonists of kappa opioid receptor 1 (OPRK1). It counts as functional.
Chain of Kappa-type opioid receptor (P41145 whole entry): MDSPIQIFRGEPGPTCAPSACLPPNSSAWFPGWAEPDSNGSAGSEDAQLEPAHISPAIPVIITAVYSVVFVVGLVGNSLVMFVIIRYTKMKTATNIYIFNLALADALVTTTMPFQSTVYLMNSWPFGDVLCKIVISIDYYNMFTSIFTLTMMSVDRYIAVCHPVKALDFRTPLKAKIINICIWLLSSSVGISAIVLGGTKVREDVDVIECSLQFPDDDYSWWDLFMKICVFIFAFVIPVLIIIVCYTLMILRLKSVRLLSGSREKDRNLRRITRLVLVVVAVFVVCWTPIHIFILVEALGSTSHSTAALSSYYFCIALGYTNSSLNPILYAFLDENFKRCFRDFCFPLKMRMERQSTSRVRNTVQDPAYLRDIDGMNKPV
The target of the next assay is Mu-type opioid receptor (Homo sapiens, UniProt P35372). Nature of the assay: Late-stage results from the probe development effort to identify antagonists of OPRK1: luminescence-based cell-based dose response OPRM1 counterscreen, Set 2. Format: functional.
Chain of Mu-type opioid receptor (P35372 whole entry): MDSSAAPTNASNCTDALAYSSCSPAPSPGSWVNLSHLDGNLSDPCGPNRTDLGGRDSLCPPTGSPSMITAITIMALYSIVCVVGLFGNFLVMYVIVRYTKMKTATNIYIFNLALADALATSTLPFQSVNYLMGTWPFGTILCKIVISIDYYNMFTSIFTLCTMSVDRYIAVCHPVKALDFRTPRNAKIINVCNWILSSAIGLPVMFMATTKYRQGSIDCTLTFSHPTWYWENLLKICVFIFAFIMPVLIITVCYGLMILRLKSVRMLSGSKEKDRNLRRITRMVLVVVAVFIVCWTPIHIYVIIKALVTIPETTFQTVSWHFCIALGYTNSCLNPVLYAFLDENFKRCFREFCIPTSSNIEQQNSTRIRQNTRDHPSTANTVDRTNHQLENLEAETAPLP
The target of assay [14] is Delta-type opioid receptor (Homo sapiens, UniProt P41143). As to the kind of experiment: Late-stage results from the probe development effort to identify antagonists of OPRK1: fluorescence-based cell-based dose response OPRD1 counterscreen, Set 2. Format: functional.
Chain of Delta-type opioid receptor (P41143 whole entry): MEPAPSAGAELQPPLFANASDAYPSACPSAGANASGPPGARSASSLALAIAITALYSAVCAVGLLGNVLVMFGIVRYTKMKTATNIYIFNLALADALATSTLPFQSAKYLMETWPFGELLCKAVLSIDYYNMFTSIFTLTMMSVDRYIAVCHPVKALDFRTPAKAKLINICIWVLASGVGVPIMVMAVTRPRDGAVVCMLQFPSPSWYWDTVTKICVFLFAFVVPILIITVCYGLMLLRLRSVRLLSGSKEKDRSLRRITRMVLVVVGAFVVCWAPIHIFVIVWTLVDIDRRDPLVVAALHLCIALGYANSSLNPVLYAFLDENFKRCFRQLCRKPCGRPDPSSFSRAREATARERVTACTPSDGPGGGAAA
Assay [15] has as its target Sphingosine 1-phosphate receptor 1 (Homo sapiens, UniProt P21453). As to the kind of experiment: Late-stage counterscreen for antagonists of kappa opioid receptor 1 (OPRK1): fluorescence-based cell-based dose response assay to identify antagonists of Sphingosine 1-Phosphate Receptor 1 (S1P1). Format: functional.
Assay [16] addresses Potassium channel subfamily K member 9 (Homo sapiens, UniProt Q9NPC2). Nature of the assay: TASK3 (KCNK9) channel inhibitors, thallium flux, SAR follow-up, selectivity assay for TASK1 inhibitor project, cell-based, FluxOR thallium flux, concentration-response (AID 652211).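 Further: potency is for inhibitors of the channel.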 It counts as functional.
The target in assay [17] is Potassium channel subfamily K member 3 (Homo sapiens, UniProt O14649). Nature of the assay: TASK1 (KCNK3) potassium channel inhibitors, SAR follow-up, CHO cells, FluxOR thallium flux (AID 652212). Format: functional.
Chain of Potassium channel subfamily K member 3 (O14649 whole entry): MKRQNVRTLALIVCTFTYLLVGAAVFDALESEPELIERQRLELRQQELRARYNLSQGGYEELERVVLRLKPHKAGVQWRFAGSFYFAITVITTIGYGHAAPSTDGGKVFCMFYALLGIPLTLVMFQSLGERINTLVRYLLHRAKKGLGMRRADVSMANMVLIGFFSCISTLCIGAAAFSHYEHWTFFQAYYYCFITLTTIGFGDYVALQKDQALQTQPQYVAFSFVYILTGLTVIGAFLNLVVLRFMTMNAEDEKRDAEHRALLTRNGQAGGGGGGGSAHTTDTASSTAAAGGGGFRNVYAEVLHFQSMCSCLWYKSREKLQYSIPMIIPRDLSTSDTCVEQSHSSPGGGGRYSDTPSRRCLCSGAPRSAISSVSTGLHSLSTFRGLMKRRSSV
In another assay the target is Albumin (Bos taurus, UniProt P02769). As to the kind of experiment: Counterscreen for inhibitors of T-cell receptor (TCR)-CD3 interaction: Fluorescence-based biochemical high throughput dose response assay to identify inhibitors of T-cell receptor (TCR)-CD3 interaction using a TAMRA-labeled BSA probe. It counts as functional.
Chain of Albumin (P02769 whole entry): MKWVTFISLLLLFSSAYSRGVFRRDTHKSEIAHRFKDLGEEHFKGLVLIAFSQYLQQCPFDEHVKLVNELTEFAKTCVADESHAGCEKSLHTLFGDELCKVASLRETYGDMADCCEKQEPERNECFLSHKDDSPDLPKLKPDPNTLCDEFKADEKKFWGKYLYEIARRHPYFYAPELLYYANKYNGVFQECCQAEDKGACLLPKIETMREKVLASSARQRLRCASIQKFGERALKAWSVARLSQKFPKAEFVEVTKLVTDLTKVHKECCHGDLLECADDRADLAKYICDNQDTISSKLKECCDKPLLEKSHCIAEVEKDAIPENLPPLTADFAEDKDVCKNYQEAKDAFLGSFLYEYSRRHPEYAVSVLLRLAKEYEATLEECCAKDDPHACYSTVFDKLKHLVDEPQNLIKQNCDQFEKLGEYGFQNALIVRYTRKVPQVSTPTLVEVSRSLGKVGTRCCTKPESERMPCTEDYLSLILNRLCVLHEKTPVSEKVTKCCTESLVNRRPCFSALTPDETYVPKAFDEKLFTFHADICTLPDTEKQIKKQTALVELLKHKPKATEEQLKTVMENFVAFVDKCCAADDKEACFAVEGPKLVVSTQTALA

The record followed here is ChEMBL document CHEMBL1201862, “PubChem BioAssay data set” (2004).

Activity calls are given as the source filed them.

Chain of Paired box protein Pax-8 (Q06710 whole entry): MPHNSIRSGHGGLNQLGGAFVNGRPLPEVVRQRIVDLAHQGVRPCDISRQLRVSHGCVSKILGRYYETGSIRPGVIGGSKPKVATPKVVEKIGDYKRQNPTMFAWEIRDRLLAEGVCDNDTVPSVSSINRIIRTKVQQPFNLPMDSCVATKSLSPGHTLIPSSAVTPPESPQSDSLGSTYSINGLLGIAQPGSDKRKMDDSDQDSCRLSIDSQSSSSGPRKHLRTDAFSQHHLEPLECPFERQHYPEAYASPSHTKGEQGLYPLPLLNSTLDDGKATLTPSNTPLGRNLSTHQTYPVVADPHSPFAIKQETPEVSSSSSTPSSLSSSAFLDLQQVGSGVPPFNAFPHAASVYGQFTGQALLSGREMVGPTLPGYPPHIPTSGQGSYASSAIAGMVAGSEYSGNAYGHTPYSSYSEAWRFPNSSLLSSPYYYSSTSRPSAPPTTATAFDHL
Chain of Sphingosine 1-phosphate receptor 1 (P21453 whole entry): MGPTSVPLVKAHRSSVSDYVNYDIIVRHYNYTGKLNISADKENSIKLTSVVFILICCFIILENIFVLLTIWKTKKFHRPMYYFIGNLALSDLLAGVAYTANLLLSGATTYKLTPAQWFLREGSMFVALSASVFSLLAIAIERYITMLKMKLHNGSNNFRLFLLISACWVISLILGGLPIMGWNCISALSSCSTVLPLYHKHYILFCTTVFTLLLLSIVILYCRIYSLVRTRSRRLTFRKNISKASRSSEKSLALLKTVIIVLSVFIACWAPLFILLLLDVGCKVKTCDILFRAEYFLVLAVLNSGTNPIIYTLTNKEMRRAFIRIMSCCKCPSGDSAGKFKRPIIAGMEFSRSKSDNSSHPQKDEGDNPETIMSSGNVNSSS
Chain of Potassium channel subfamily K member 9 (Q9NPC2 whole entry): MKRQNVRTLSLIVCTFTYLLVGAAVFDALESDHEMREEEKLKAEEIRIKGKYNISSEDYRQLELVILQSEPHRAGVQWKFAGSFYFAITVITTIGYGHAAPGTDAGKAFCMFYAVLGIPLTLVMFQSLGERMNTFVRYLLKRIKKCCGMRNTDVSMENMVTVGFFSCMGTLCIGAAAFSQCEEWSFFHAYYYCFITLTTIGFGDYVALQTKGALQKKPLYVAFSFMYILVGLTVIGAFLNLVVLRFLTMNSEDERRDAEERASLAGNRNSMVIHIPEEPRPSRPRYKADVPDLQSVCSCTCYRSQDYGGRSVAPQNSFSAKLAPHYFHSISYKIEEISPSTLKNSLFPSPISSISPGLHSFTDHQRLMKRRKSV

Take `C[C@H]1CN([C@@H](C)CO)C(=O)CCCn2nncc2CO[C@@H]1CN(C)C(=O)Nc1ccc(-c2cccs2)cc1`: the results for the half-maximal activity concentration (AC50) (on Paired box protein Pax-8; in [1]; in assay [2]) were 0.48 µM (active), > 70 µM (inactive) and 7.43 µM (active), respectively.

Turning to `COc1ccc(C#Cc2cnc3c(c2)C(=O)N([C@@H](C)CO)C[C@H](C)[C@H](CN(C)CC2CCCC2)O3)cc1`, the AC50 in assay [3] was 25.2 µM (active).

As to `COc1ccc(NC(=O)N2CC(=O)N3[C@H](C2)[C@H](c2ccc(/C=C/c4ccccc4)cc2)[C@@H]3CO)cc1`, the AC50 is 5.72 µM (active) at Paired box protein Pax-8; 26 µM (active) in assay [4]; 12.4 µM (active) in assay [5]; 30.6 µM (active) in assay [6]; 23.2 µM (active) in assay [7].

For `C[C@H](CO)N1C[C@H](C)[C@H](CN(C)C(=O)Nc2ccccc2)OCCCC[C@H](C)Oc2ccc(NC(=O)Nc3ccccc3)cc2C1=O`, the figures for the AC50 in assay [8] and in [9] were > 52 µM (inactive) and 16.9 µM (active), respectively.

Consider `Fc1cccc(-c2nnc(SCc3ccccn3)o2)c1`, for which the IC90 in assay [10] was 4 µM (active); in assay [11], 4 µM (active); in assay [12] it was 125 µM (active).

For the compound `Cc1nc(NC(=O)c2ccccc2)cc(N(C)C)n1`, the IC50 on Protein Wnt-3a was > 21.8 µM (inactive).

Consider `O=C(c1cnn(-c2ccc(Cl)cc2)c1C(F)(F)F)N1CCN(c2ncnc3ccsc23)CC1`, for which the IC50 in [13] was 1.05 µM (active); on Mu-type opioid receptor, > 50 µM (inactive); in assay [14], > 50 µM (inactive); in [15], > 50 µM (inactive).

Turning to `COc1ccccc1NC(=O)c1cccc(NC(=O)c2ccccc2)c1`, the IC50 in assay [16] was 1.41 µM (active); in assay [17], 0.064 µM (active).

For `O=c1c2c(-c3ccc(Cl)cc3)csc2ncn1/N=C/c1cccc([N+](=O)[O-])c1O`, the IC50 at Albumin was > 94.1 µM (inactive).
